Reference: patent publication US20200325154A1, “ANTIBACTERIAL BIAROMATIC DERIVATIVES WITH OXETANE-3-YLOXY SUBSTITUTION” (priority 2016, published 2020)
In brackets after ≈: the same amount, converted by molar mass.

Experiments:
Assay in all cases: Bacterial growth minimal inhibitory concentration (microdilution, cation-adjusted Mueller-Hinton Broth)
S. aureus A798 = format: cell-based, Staphylococcus aureus; details: for MIC: Staphylococcus aureus, A798, Table 1, multiply-resistant (quinolone-resistant) strain
Procedure: (§1) Minimal Inhibitory Concentrations (MICs; mg/L) were determined in cation-adjusted Mueller-Hinton Broth by a microdilution method following the description given in “Methods for Dilution Antimicrobial Susceptibility Tests for Bacteria that Grow Aerobically”, Approved standard, 7^1 ed., Clinical and Laboratory Standards Institute (CLSI) Document M7-A7, Wayne, Pa., USA (2006).
(§2) All Example compounds were tested against relevant Gram positive and Gram negative bacteria. […] Staphylococcus aureus A798 and Acinetobacter baumannii T6474 are multiply-resistant strains (in particular quinolone-resistant), whereas Moraxella catarrhalis A894 and Enterococcus faecalis ATCC29212 are quinolone-sensitive strains.

E. faecalis ATCC 29212 = format: cell-based, Enterococcus faecalis; details: quinolone-sensitive strain; for MIC: Enterococcus faecalis, ATCC29212, Table 1
Procedure: as §1, §2

M. catarrhalis A894 = format: cell-based, Moraxella catarrhalis; details: quinolone-sensitive strain; for MIC: Moraxella catarrhalis, A894, Table 1
Procedure: as §1, §2

A. baumannii T6474 = format: cell-based, Acinetobacter baumannii; details: for MIC: Acinetobacter baumannii, T6474, Table 1, multiply-resistant (quinolone-resistant) strain
Procedure: as §1, §2

[1] = Table 2, comparison with Example 50 of WO 2014/170821, multiply-resistant strain
[2] = Table 2, comparison with Example 50 of WO 2014/170821

Compound | MIC (S. aureus A798) [µg/mL] | MIC (E. faecalis ATCC 29212) [µg/mL] | MIC (M. catarrhalis A894) [µg/mL] | MIC (A. baumannii T6474) [µg/mL] | MIC for S. aureus A798 (S. aureus A798; [1]) [µg/mL] | MIC for E. faecalis ATCC 29212 (E. faecalis ATCC 29212; [2]) [µg/mL] | MIC for M. catarrhalis A894 (M. catarrhalis A894; [2]) [µg/mL] | MIC for A. baumannii T6474 (A. baumannii T6474; [1]) [µg/mL]
O=C1COc2ccc(N3C[C@H](CCNCc4cc(-c5cncc(OC6COC6)n5)ccn4)OC3=O)nc2N1 [Example 1, 6-{(S)-5-[2-({4-[6-(oxetan-3-yloxy)-pyrazin-2-yl]-pyridin-2-ylmethyl}-amino)-ethyl]-2-oxo-oxazolidin-3-yl}-4H-pyrido[3,2-b][1,4]oxazin-3-one] | ≤ 0.031 | 0.25 (≈ 0.481 µM) | ≤ 0.031 | 0.125 (≈ 0.241 µM) |  |  |  | 
O=C1COc2ccc(-n3cc(CCNCc4cc(-c5cncc(OC6COC6)n5)ccn4)oc3=O)nc2N1 [Example 2, 6-{5-[2-({4-[6-(oxetan-3-yloxy)-pyrazin-2-yl]-pyridin-2-ylmethyl}-amino)-ethyl]-2-oxo-oxazol-3-yl}-4H-pyrido[3,2-b][1,4]oxazin-3-one] | ≤ 0.031 | 0.25 (≈ 0.483 µM) | ≤ 0.031 | 0.125 (≈ 0.242 µM) |  |  |  | 
O=C1COc2ccc(N3C[C@H](CCNCc4cc(-c5cc(OC6COC6)ccn5)ccn4)OC3=O)nc2N1 [Example 3, 6-[(S)-5-(2-{[4-(oxetan-3-yloxy)-[2,4′]bipyridinyl-2′-ylmethyl]-amino}-ethyl)-2-oxo-oxazolidin-3-yl]-4H-pyrido[3,2-b][1,4]oxazin-3-one] | 1 (≈ 1.93 µM) | 1 (≈ 1.93 µM) | 0.25 (≈ 0.482 µM) | 1 (≈ 1.93 µM) |  |  |  | 
O=C1COc2ccc(N3C[C@H](CCNCc4cc(-c5nccc(OC6COC6)n5)ccn4)OC3=O)nc2N1 [Example 4, 6-{(S)-5-[2-({4-[4-(oxetan-3-yloxy)-pyrimidin-2-yl]-pyridin-2-ylmethyl}-amino)-ethyl]-2-oxo-oxazolidin-3-yl}-4H-pyrido[3,2-b][1,4]oxazin-3-one] | ≤ 0.031 | 0.25 (≈ 0.481 µM) | ≤ 0.031 | 0.125 (≈ 0.241 µM) |  |  |  | 
O=C1COc2ccc(N3C[C@H](CCNCc4cc(-c5cc(OC6COC6)cnn5)ccn4)OC3=O)nc2N1 [Example 5, 6-{(S)-5-[2-({4-[5-(oxetan-3-yloxy)-pyridazin-3-yl]-pyridin-2-ylmethyl}-amino)-ethyl]-2-oxo-oxazolidin-3-yl}-4H-pyrido[3,2-b][1,4]oxazin-3-one] | 8 (≈ 15.4 µM) | 8 (≈ 15.4 µM) | 0.5 (≈ 0.962 µM) | 8 (≈ 15.4 µM) |  |  |  | 
O=C1COc2ccc(N3C[C@H](CCNCc4cccc(-c5cccc(OC6COC6)n5)c4)OC3=O)nc2N1 [Example 6, 6-[(S)-5-(2-{3-[6-(oxetan-3-yloxy)-pyridin-2-yl]-benzylamino}-ethyl)-2-oxo-oxazolidin-3-yl]-4H-pyrido[3,2-b][1,4]oxazin-3-one] | ≤ 0.031 | 0.25 (≈ 0.483 µM) | ≤ 0.031 | 0.25 (≈ 0.483 µM) |  |  |  | 
O=C1COc2ccc(N3C[C@H](CCNCc4ccnc(-c5cncc(OC6COC6)n5)c4)OC3=O)nc2N1 [Example 7, 6-{(S)-5-[2-({2-[6-(oxetan-3-yloxy)-pyrazin-2-yl]-pyridin-4-ylmethyl}-amino)-ethyl]-2-oxo-oxazolidin-3-yl}-4H-pyrido[3,2-b][1,4]oxazin-3-one] | ≤ 0.031 | 0.5 (≈ 0.962 µM) | ≤ 0.031 | 0.5 (≈ 0.962 µM) |  |  |  | 
O=C1COc2ccc(N3C[C@H](CCNCc4cccc(-c5cc(OC6COC6)cnn5)c4)OC3=O)nc2N1 [Example 8, 6-[(S)-5-(2-{3-[5-(oxetan-3-yloxy)-pyridazin-3-yl]-benzylamino}-ethyl)-2-oxo-oxazolidin-3-yl]-4H-pyrido[3,2-b][1,4]oxazin-3-one] | 0.5 (≈ 0.964 µM) | 4 (≈ 7.71 µM) | 0.25 (≈ 0.482 µM) | 1 (≈ 1.93 µM) |  |  |  | 
O=C1COc2ccc(N3C[C@H](CCNCc4cccc(-c5cccc(OC6COC6)c5)c4)OC3=O)nc2N1 [Example 9, 6-[(S)-5-(2-{[3′-(oxetan-3-yloxy)-biphenyl-3-ylmethyl]-amino}-ethyl)-2-oxo-oxazolidin-3-yl]-4H-pyrido[3,2-b][1,4]oxazin-3-one] | 0.125 (≈ 0.242 µM) | 0.5 (≈ 0.968 µM) | ≤ 0.031 | 1 (≈ 1.94 µM) | 0.125 | 0.5 | ≤0.031 | 1
O=C1COc2ccc(N3C[C@@H](CCNCc4cc(-c5nccc(OC6COC6)n5)ccn4)OC3=O)nc2N1 [Example 10, 6-{(R)-5-[2-({4-[4-(oxetan-3-yloxy)-pyrimidin-2-yl]-pyridin-2-ylmethyl}-amino)-ethyl]-2-oxo-oxazolidin-3-yl}-4H-pyrido[3,2-b][1,4]oxazin-3-one] | 0.25 (≈ 0.481 µM) | 0.5 (≈ 0.962 µM) | 0.063 (≈ 0.121 µM) | 0.25 (≈ 0.481 µM) |  |  |  | 
O=C1CSc2ccc(N3C[C@H](CCNCc4cc(-c5nccc(OC6COC6)n5)ccn4)OC3=O)nc2N1 [Example 11, 6-{(S)-5-[2-({4-[4-(oxetan-3-yloxy)-pyrimidin-2-yl]-pyridin-2-ylmethyl}-amino)-ethyl]-2-oxo-oxazolidin-3-yl}-4H-pyrido[3,2-b][1,4]thiazin-3-one] | ≤ 0.031 | 0.125 (≈ 0.233 µM) | ≤ 0.031 | 0.125 (≈ 0.233 µM) |  |  |  | 
O=C1CSc2ccc(N3C[C@H](CCNCc4cc(-c5nccc(OC6COC6)n5)ccn4)OC3=O)cc2N1 [Example 12, 6-{(S)-5-[2-({4-[4-(oxetan-3-yloxy)-pyrimidin-2-yl]-pyridin-2-ylmethyl}-amino)-ethyl]-2-oxo-oxazolidin-3-yl}-4H-benzo[1,4]thiazin-3-one] | ≤ 0.031 | 0.25 (≈ 0.468 µM) | ≤ 0.031 | 0.25 (≈ 0.468 µM) |  |  |  | 
O=C1COc2ccc(-n3cc(CCNCc4cc(-c5nccc(OC6COC6)n5)ccn4)oc3=O)nc2N1 [Example 13, 6-{5-[2-({4-[4-(oxetan-3-yloxy)-pyrimidin-2-yl]-pyridin-2-ylmethyl}-amino)-ethyl]-2-oxo-oxazol-3-yl}-4H-pyrido[3,2-b][1,4]oxazin-3-one] | ≤ 0.031 | 0.5 (≈ 0.966 µM) | ≤ 0.031 | 0.125 (≈ 0.242 µM) |  |  |  | 
O=C1COc2ccc(N3C[C@H](CCNCc4cc(-c5cncc(OC6COC6)n5)c(O)cn4)OC3=O)nc2N1 [Example 14, 6-{(S)-5-[2-({5-hydroxy-4-[6-(oxetan-3-yloxy)-pyrazin-2-yl]-pyridin-2-ylmethyl}-amino)-ethyl]-2-oxo-oxazolidin-3-yl}-4H-pyrido[3,2-b][1,4]oxazin-3-one] | 1 (≈ 1.87 µM) | 4 (≈ 7.47 µM) | 0.5 (≈ 0.934 µM) | 4 (≈ 7.47 µM) |  |  |  | 
O=C1COc2ccc(N3C[C@H](CCNCc4cc(-c5nccc(OC6COC6)n5)c(O)cn4)OC3=O)nc2N1 [Example 15, 6-{(S)-5-[2-({5-hydroxy-4-[4-(oxetan-3-yloxy)-pyrimidin-2-yl]-pyridin-2-ylmethyl}-amino)-ethyl]-2-oxo-oxazolidin-3-yl}-4H-pyrido[3,2-b][1,4]oxazin-3-one] | ≤ 0.031 | 0.25 (≈ 0.467 µM) | ≤ 0.031 | 0.25 (≈ 0.467 µM) |  |  |  | 
O=C1COc2ccc(N3C[C@H](CCNCc4nccc(-c5cncc(OC6COC6)n5)c4O)OC3=O)nc2N1 [Example 16, 6-{(S)-5-[2-({3-Hydroxy-4-[6-(oxetan-3-yloxy)-pyrazin-2-yl]-pyridin-2-ylmethyl}-amino)-ethyl]-2-oxo-oxazolidin-3-yl}-4H-pyrido[3,2-b][1,4]oxazin-3-one] | 0.25 (≈ 0.467 µM) | 2 (≈ 3.73 µM) | 0.25 (≈ 0.467 µM) | 1 (≈ 1.87 µM) |  |  |  | 
